How the values were obtained:
Candida albicans [1] = conditions: microtiter broth, 25° C., 3-5 days
Description: (§1) The susceptibility of selected pathogens to individual and mixtures of acetic and boric acid was investigated, in vitro. Fresh isolates of Staphylococcus intermedius, Pseudomonas aeruginosa, Candida albicans, Microsporum canis and Malassezia pachydermatis were obtained from VHUP Clinical Veterinary Microbiology Laboratory. Staphylococcus and Pseudomonas were grown on Mueller-Hinton (M-H) broth overnight at approximately 37° C. and fungi were inoculated into Sabourauds Antibiotic broth medium and incubated at 25° C. for 4 days. Stock dilutions (2x) of both boric acid and acetic acid were prepared in M-H broth (for bacteria studies) or in Sabourauds Antibiotic Broth (for fungal studies). These concentrations were 1.0%, 4.0%, 7.5% and 10.0%. The stock solutions were used to prepare the full spectrum of all possible combinations of acetic and boric acids in 96 well microtiter plates. All wells were raised to a final volume of 100 ul as required. The organisms were diluted to an approximate concentration of 10^5 cfu and 10 ul of this preparation was inolculated into each well with an 8 channel micropipeter. The microtiter plates containing the bacteria were incubated at 35.5° C. for 18 to 24 hours. The plates containing the fungi were incubated at 25° C. for 3-5 days. The presence of the growth in the wells was recorded. These values determine the Minimum Inhibitory Concentration (MIC) of the acids at individual and mixed concentrations.

Pseudomonas aeruginosa = conditions: microtiter broth, 35.5° C., 18 to 24 hours
Description: as §1

[2] = tested on: Staphylococcus intermedius; conditions: microtiter broth, 35.5° C., 18 to 24 hours
Description: as §1

Candida albicans [3] = conditions: in vitro; cited from earlier work
vulvovaginal candidiasis = conditions: in vivo; cited from earlier work
fungi causing otomycosis = conditions: in vitro, five fungi; cited from earlier work

SMILES	growth inhibition (Candida albicans [1])	growth inhibition (Pseudomonas aeruginosa)	growth inhibition [2]	activity against Candida albicans (Candida albicans [3])	efficacy in treating vulvovaginal candidiasis (vulvovaginal candidiasis)	fungitoxic effect (fungi causing otomycosis)
OB(O)O [Boric acid, boric acid]	inhibited	inhibited	inhibited	fungistatic	effective	
CC(=O)O [acetic acid]						Some antifungal effect

— US6420425B1, “Method for the broad based treatment of infections especially infections of organs such as the skin and vagina” (priority 1997, dated 2002)
